Like-named read-outs stand apart in the source and are kept apart here.
What was measured:
[1] = target: SREBP-2 (Homo sapiens (Human), UniProt Q12772); test: In vitro assay SREBP-2: PathHunter U2OS SREBP-2 Nuclear Translocation Cell Line, U18666A-stimulated; type: cell-based; settings: PathHunter U2OS SREBP-2 nuclear translocation cells, U18666A 10 μM, overnight (16 hours)
[2] = target: LXRβ (Homo sapiens (Human), UniProt P55055); test: In vitro assay LXRβ: PathHunter NHR CHO cells, LXRβ / Steroid Receptor Co-activator Peptide enzyme fragment complementation; type: cell-based
LXRβ, sequence (P55055 whole entry, the tested form may be a part): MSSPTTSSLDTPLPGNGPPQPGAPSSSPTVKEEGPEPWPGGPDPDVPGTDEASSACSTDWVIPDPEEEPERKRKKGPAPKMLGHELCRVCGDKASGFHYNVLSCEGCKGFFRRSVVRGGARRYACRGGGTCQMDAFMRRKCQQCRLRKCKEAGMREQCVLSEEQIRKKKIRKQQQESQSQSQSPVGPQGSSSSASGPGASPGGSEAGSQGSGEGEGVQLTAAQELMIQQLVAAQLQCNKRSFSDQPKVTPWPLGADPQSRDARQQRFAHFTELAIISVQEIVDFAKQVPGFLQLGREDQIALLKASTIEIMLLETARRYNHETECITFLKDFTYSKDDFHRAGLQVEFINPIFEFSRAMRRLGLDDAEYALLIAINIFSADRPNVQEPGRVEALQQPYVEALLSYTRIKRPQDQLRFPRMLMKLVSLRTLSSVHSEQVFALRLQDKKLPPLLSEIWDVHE
Summary of the method: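 Co-activator recruitment measured by chemiluminescence after signal generation. The CHO line carries full-length human LXRβ tagged with ProLink and an SRCP–enzyme acceptor fusion in the nucleus; cells sat overnight at 37° C before testing, in charcoal-dextran filtered serum medium with 1% final vehicle.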

[3] = PathHunter NHR CHO cells, full-length human LXRβ and SRCP, chemiluminescent signal, read-out: LXRβ PPI

Compound	IC50 [1] [µM]	EC50 [2, 3] [µM]	EC50 [2] [µM]
C[C@H](CCC(=O)N1CC(C(O)(C(F)(F)F)C(F)(F)F)C1)[C@H]1CC[C@H]2[C@@H]3CC=C4C[C@@H](O)CC[C@]4(C)[C@H]3CC[C@]12C [Example 97, (R)-1-(3-(1,1,1,3,3,3-hexafluoro-2-hydroxypropan-2-yl)azetidin-1-yl)-4-((3S,8S,9S,10R,13R,14S,17R)-3-hydroxy-10,13-dimethyl-2,3,4,7,8,9,10,11,12,13,14,15,16,17-tetradecahydro-1H-cyclopenta[a]phenanthren-17-yl) pentan-1-one]	< 0.25	> 10	–
CNC(=O)OC[C@@H](C)[C@H]1CC[C@H]2[C@@H]3CC=C4C[C@@H](O)CC[C@]4(C)[C@H]3CC[C@]12C [Example 351, (S)-2-((3S,8S,9S,10R,13S,14S,17R)-3-hydroxy-10,13-dimethyl-2,3,4,7,8,9,10,11,12,13,14,15,16,17-tetradecahydro-1H-cyclopenta[a]phenanthren-17-yl)propyl methylcarbamate]	< 0.25	> 10	–
Cc1noc(C(=O)N2CCN(C(=O)CC[C@@H](C)[C@H]3CC[C@H]4[C@@H]5CC=C6C[C@@H](O)CC[C@]6(C)[C@H]5CC[C@]34C)CC2)n1 [Example 292, (R)-4-((3S,8S,9S,10R,13R,14S,17R)-3-hydroxy-10,13-dimethyl-2,3,4,7,8,9,10,11,12,13,14,15,16,17-tetradecahydro-1H-cyclopenta[a]phenanthren-17-yl)-1-(4-(3-methyl-1,2,4-oxadiazole-5-carbonyl)piperazin-1-yl)pentan-1-one]	< 0.25	> 10	–
Cc1ccnc(CC[C@@H](C)[C@H]2CC[C@H]3[C@@H]4CC=C5C[C@@H](O)CC[C@]5(C)[C@H]4CC[C@]23C)n1 [Example 191, (3S,8S,9S,10R,13R,14S,17R)-10,13-dimethyl-17-((R)-4-(4-methylpyrimidin-2-yl)butan-2-yl)-2,3,4,7,8,9,10,11,12,13,14,15,16,17-tetradecahydro-1H-cyclopenta[a]phenanthren-3-ol]	< 0.25	0.25 to 1	–
C[C@H](CCc1ccccn1)[C@H]1CC[C@H]2[C@@H]3CC=C4C[C@@H](O)CC[C@]4(C)[C@H]3CC[C@]12C [Example 124, (3S,8S,9S,10R,13R,14S,17R)-10,13-dimethyl-17-((R)-4-(pyridin-2-yl)butan-2-yl)-2,3,4,7,8,9,10,11,12,13,14,15,16,17-tetradecahydro-1H-cyclopenta[a]phenanthren-3-ol]	< 0.25	0.25 to 1	–
C[C@H](COc1ccccc1)[C@H]1CC[C@H]2[C@@H]3CC=C4C[C@@H](O)CC[C@]4(C)[C@H]3CC[C@]12C [Example 182, (1R,3aS,3bS,7S,9aR,9bS,11aS)-9a,11a-dimethyl-1-[(2S)-1-phenoxypropan-2-yl]-1H,2H,3H,3aH,3bH,4H,6H,7H,8H,9H,9aH,9bH,10H,11H,11aH-cyclopenta[a]phenanthren-7-ol]	0.25 to 1	> 10	–
C[C@H](CCc1ncccc1C(C)(C)O)[C@H]1CC[C@H]2[C@@H]3CC=C4C[C@@H](O)CC[C@]4(C)[C@H]3CC[C@]12C [Example 248, (3S,8S,9S,10R,13R,14S,17R)-17-((R)-4-(3-(2-hydroxypropan-2-yl)pyridin-2-yl)butan-2-yl)-10,13-dimethyl-2,3,4,7,8,9,10,11,12,13,14,15,16,17-tetradecahydro-1H-cyclopenta[a]phenanthren-3-ol]	< 0.25	–	< 0.25
CC[C@@]1(O)CCCN(C(=O)CC[C@@H](C)[C@H]2CC[C@H]3[C@@H]4CC=C5C[C@@H](O)CC[C@]5(C)[C@H]4CC[C@]23C)C1 [Example 106, (4R)-1-(3-ethyl-3-hydroxypiperidin-1-yl)-4-((3S,8S,9S,10R,13R,14S,17R)-3-hydroxy-10,13-dimethyl-2,3,4,7,8,9,10,11,12,13,14,15,16,17-tetradecahydro-1H-cyclopenta[a]phenanthren-17-yl)pentan-1-one]	< 0.25	0.25 to 1	–
Cc1ncccc1O[C@@H](C)[C@H]1CC[C@H]2[C@@H]3CC=C4C[C@@H](O)CC[C@]4(C)[C@H]3CC[C@]12C [Example 274, (1S,3aS,3bS,7S,9aR,9bS,11aS)-9a,11a-dimethyl-1-[(1S)-1-[(2-methylpyridin-3-yl)oxy]ethyl]-1H,2H,3H,3aH,3bH,4H,6H,7H,8H,9H,9aH,9bH,10H,11H,11aH-cyclopenta[a]phenanthren-7-ol]	0.25 to 1	> 10	–
CON(CCO)C(=O)CC[C@@H](C)[C@H]1CC[C@H]2[C@@H]3CC=C4C[C@@H](O)CC[C@]4(C)[C@H]3CC[C@]12C [Example 62, (R)-4-((3S,8S,9S,10R,13R,14S,17R)-3-hydroxy-10,13-dimethyl-2,3,4,7,8,9,10,11,12,13,14,15,16,17-tetradecahydro-1H-cyclopenta[a]phenanthren-17-yl)-N-(2-hydroxyethyl)-N-methoxypentanamide]	0.25 to 1	0.25 to 1	–
C[C@H](CCC(=O)N1CCN(S(N)(=O)=O)CC1)[C@H]1CC[C@H]2[C@@H]3CC=C4C[C@@H](O)CC[C@]4(C)[C@H]3CC[C@]12C [Example 359, 4-[(4R)-4-[(1R,3aS,3bS,7S,9aR,9bS,11aR)-7-hydroxy-9a,11a-dimethyl-1H,2H,3H,3aH,3bH,4H,6H,7H,8H,9H,9aH,9bH,10H,11H,11aH-cyclopenta[a]phenanthren-1-yl]pentanoyl]piperazine-1-sulfonamide]	< 0.25	> 10	–
C[C@H](C(=O)Nc1ccncc1)[C@H]1CC[C@H]2[C@@H]3CC=C4C[C@@H](O)CC[C@]4(C)[C@H]3CC[C@]12C [Example 600, (S)-2-((3S,8S,9S,10R,13S,14S,17R)-3-hydroxy-10,13-dimethyl-2,3,4,7,8,9,10,11,12,13,14,15,16,17-tetradecahydro-1H-cyclopenta[a]phenanthren-17-yl)-N-(pyridin-4-yl)propanamide]	1 to 10	> 10	–
C[C@H](CCC(=O)N1CCN(c2ccn(C3CC3)c2)CC1)[C@H]1CC[C@H]2[C@@H]3CC=C4C[C@@H](O)CC[C@]4(C)[C@H]3CC[C@]12C [Example 516, (R)-1-(4-(1-cyclopropyl-1H-pyrrol-3-yl)piperazin-1-yl)-4-((3S,8S,9S,10R,13R,14S,17R)-3-hydroxy-10,13-dimethyl-2,3,4,7,8,9,10,11,12,13,14,15,16,17-tetradecahydro-1H-cyclopenta[a]phenanthren-17-yl)pentan-1-one]	< 0.25	> 10	–
COc1ncnc(N2CCN(C(=O)CC[C@@H](C)[C@H]3CC[C@H]4[C@@H]5CC=C6C[C@@H](O)CC[C@]6(C)[C@H]5CC[C@]34C)CC2)c1OC [Example 618, (R)-1-(4-(5,6-dimethoxypyrimidin-4-yl)piperazin-1-yl)-4-((3S,8S,9S,10R,13R,14S,17R)-3-hydroxy-10,13-dimethyl-2,3,4,7,8,9,10,11,12,13,14,15,16,17-tetradecahydro-1H-cyclopenta[a]phenanthren-17-yl)pentan-1-one]	< 0.25	> 10	–
C[C@H](CCC(=O)N1CCN(C(=O)c2cnn(C)c2)C[C@@H]1C)[C@H]1CC[C@H]2[C@@H]3CC=C4C[C@@H](O)CC[C@]4(C)[C@H]3CC[C@]12C [Example 578, (R)-4-((3S,8S,9S,10R,13R,14S,17R)-3-hydroxy-10,13-dimethyl-2,3,4,7,8,9,10,11,12,13,14,15,16,17-tetradecahydro-1H-cyclopenta[a]phenanthren-17-yl)-1-((S)-2-methyl-4-(1-methyl-1H-pyrazole-4-carbonyl)piperazin-1-yl)pentan-1-one]	< 0.25	> 10	–
COc1nccc(N2CCN(C(=O)CC[C@@H](C)[C@H]3CC[C@H]4[C@@H]5CC=C6C[C@@H](O)CC[C@]6(C)[C@H]5CC[C@]34C)CC2)n1 [Example 202, (R)-4-((3S,8S,9S,10R,13R,14S,17R)-3-hydroxy-10,13-dimethyl-2,3,4,7,8,9,10,11,12,13,14,15,16,17-tetradecahydro-1H-cyclopenta[a]phenanthren-17-yl)-1-(4-(2-methoxypyrimidin-4-yl)piperazin-1-yl) pentan-1-one]	< 0.25	> 10	–
CC(=O)N[C@H]1CCN(C(=O)CC[C@@H](C)[C@H]2CC[C@H]3[C@@H]4CC=C5C[C@@H](O)CC[C@]5(C)[C@H]4CC[C@]23C)C1 [Example 322, N—((S)-1-((R)-4-((3S,8S,9S,10R,13R,14S,17R)-3-hydroxy-10,13-dimethyl-2,3,4,7,8,9,10,11,12,13,14,15,16,17-tetradecahydro-1H-cyclopenta[a]phenanthren-17-yl)pentanoyl)pyrrolidin-3-yl)acetamide]	< 0.25	> 10	–
C[C@H](CCC(=O)N(C)c1ccncc1)[C@H]1CC[C@H]2[C@@H]3CC=C4C[C@@H](O)CC[C@]4(C)[C@H]3CC[C@]12C [Example 639, (R)-4-((3S,8S,9S,10R,13R,14S,17R)-3-hydroxy-10,13-dimethyl-2,3,4,7,8,9,10,11,12,13,14,15,16,17-tetradecahydro-1H-cyclopenta[a]phenanthren-17-yl)-N-methyl-N-(pyridin-4-yl)pentanamide]	0.25 to 1	> 10	–
Cc1nccc(CC[C@@H](C)[C@H]2CC[C@H]3[C@@H]4CC=C5C[C@@H](O)CC[C@]5(C)[C@H]4CC[C@]23C)n1 [Example 190, (3S,8S,9S,10R,13R,14S,17R)-10,13-dimethyl-17-((R)-4-(2-methylpyrimidin-4-yl)butan-2-yl)-2,3,4,7,8,9,10,11,12,13,14,15,16,17-tetradecahydro-1H-cyclopenta[a]phenanthren-3-ol]	0.25 to 1	1 to 10	–

— patent publication US20230340011A1 (Asteroid Therapeutics, priority 2022, published 2023)
